Measured values taken from patent US6825191B2, “Benzodiazepine derivatives” (Ajinomoto Co., Inc., priority 2000, dated 2004).

Key:
[1] = biological target: T1, activated human blood coagulation factor X (Homo sapiens, UniProt P00742); assay: Determination of activity of inhibiting the activated blood-coagulation factor X (chromogenic substrate, initial rate); assay type: biochemical; conditions: negative logarithm of concentration inhibiting 50% of initial rate, tris hydrochloride buffer pH 8.4, room temperature; for IC50: read-out: Activity of inhibiting activated blood coagulation factor X (pIC50) (converted)
T1 construct: purchased Enzyme Research Co
T1 sequence (P00742 235-488 limits assumed): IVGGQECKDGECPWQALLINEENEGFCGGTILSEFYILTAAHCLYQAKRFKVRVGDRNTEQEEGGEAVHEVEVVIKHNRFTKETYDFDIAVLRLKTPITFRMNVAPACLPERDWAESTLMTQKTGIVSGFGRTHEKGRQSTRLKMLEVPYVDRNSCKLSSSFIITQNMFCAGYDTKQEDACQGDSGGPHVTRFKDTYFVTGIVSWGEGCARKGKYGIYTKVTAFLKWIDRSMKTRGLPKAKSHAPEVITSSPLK
T1 sequence (P00742 41-179 partner limits assumed): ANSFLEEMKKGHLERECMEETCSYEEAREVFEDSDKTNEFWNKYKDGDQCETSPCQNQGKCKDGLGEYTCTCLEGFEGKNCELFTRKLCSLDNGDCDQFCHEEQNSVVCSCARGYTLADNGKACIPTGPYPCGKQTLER
Experimental: Determination of Activity of inhibiting the Activated Blood-coagulation Factor X
130 μl of 100 mM tris hydrochloride buffer adjusted to pH 8.4 was added to 10 μl of an aqueous solution of a compound to be tested. Then 10 μl of a 0.5 unit/ml solution of activated human blood coagulation factor X (a product of Enzyme Research Co.) in tris hydrochloride buffer of pH 8.4 was added to the resultant mixture. After the incubation at room temperature for 10 minutes, 50 μl of a solution of N-benzoyl-L-isoleucyl-L-glutamyl-glycyl-L-arginyl-P-nitroanilide hydrochloride (a product of Peptide Institute Inc.) adjusted to 0.8 mM with tris hydrochloride (pH 8.4) was added thereto. The a absorbance was determined and then the initial reaction rate was determined. A control was prepared in the same manner as that described above except that the solution of the compound to be tested was replaced with 10 μl of tris hydrochloride buffer adjusted to pH 8.4. The absorbance was determined with MICROPLATE READER Model 3550-UV (a product of BIO RAD) at a wave length of 405 nm at intervals of 15 seconds for 16 minutes.

human thrombin = biological target: T2, human thrombin (Homo sapiens, UniProt P00734); assay: Determination of thrombin-inhibiting activity (chromogenic substrate S-2238, initial rate); assay type: biochemical; conditions: negative logarithm of concentration inhibiting 50% of initial rate, tris hydrochloride buffer pH 8.4, room temperature; for IC50: read-out: Thrombin-inhibiting activity (pIC50) (converted)
T2 construct: solution of human thrombin (a product of SIGMA Co.); purchased SIGMA Co
Experimental: Determination of Thrombin-inhibiting Activity
130 μL of 100 mM tris hydrochloride buffer adjusted to pH 8.4 was added to 10 μl of an aqueous solution of a test compound. Then 10 μl of a solution of human thrombin (a product of SIGMA Co.) adjusted to 2 units/ml with tris hydrochloride buffer of pH 8.4 was added to the resultant mixture. After the incubation at room temperature for 10 minutes, 50 μl of a solution of D-phenylalanine-L-pipecolyl-L-arginine-P-nitroanilide dihydrochloride (S-2238; a product of Daiichi Kagaku Yakuhin Co.) adjusted to 0.4 mM with tris hydrochloride buffer of pH 8.4 was added thereto. The absorbance was determined and then the initial reaction rate was determined. A control was prepared in the same manner as that described above except that the solution of the compound to be tested was replaced with 10 μl of tris hydrochloride buffer adjusted to pH 8.4. The absorbance was determined with MICROPLATE READER Model 3550-UV (a product of BIO RAD) at a wave length of 405 nm at intervals of 15 seconds for 16 minutes. The negative logarithm (pIC50) of a concentration of the test compound which inhibits 50% of the activity (initial rate) of the thrombin in the absence of the test compound was determined, and employed as the index of the activity of inhibiting thrombin.

blood plasma = assay: Determination of blood anticoagulating activity by prothrombin time (PT) determination method; assay type: biochemical, human; conditions: negative logarithm of concentration which elongated PT of the control to twice as long; blood plasma of healthy people
Experimental: Determination of Blood Anticoagulating Activity
The blood anticoagulating activity was determined by a prothrombin time (PT) determination method. The PT was determined as follows: The blood was taken from healthy people. 3.8% aqueous trisodium citrate solution was added to the blood in a volume ratio of 1:10. The blood plasma was separated by the centrifugation. 5 μl of DMSO solution containing a test compound was added to 45 μl of the blood plasma. After the incubation apt room temperature for 2 minutes, a test tube containing the blood plasma solution was placed in Sysmex CA-3000 fully automatic blood coagulation determination device (a product of Toa Medical Electronics Co., Ltd), and incubated at 37° C. for 3 minutes. 100 μl of Sysmex PT II (rabbit brain tissue thromboplastin, 13.2 mM calcium chloride; a product of Toa Medical Electronics Co., Ltd) was fed into the test tube. PT was automatically determined with the device. A sample containing 5 μl of DMSO in place of the solution of the test compound was used as the control. The negative logarithm (pPT2) of the concentration of the test compound which elongated PT of the control to the twice as long was determined, and employed as the index of the blood anticoagulating activity.

Activity of inhibiting activated blood coagulation factor X (pIC50) [1]	Thrombin-inhibiting activity (pIC50) (human thrombin)	IC50 [1]	IC50 (human thrombin)	Compound	Human blood anticoagulating activity (pPT2) (blood plasma)
6.4	<4.0			4-(4-chlorobenzoyl)-1-[4-(1-acetoimidoyl)-4-piperidyloxy]benzyl]-1,3,4,5-tetrahydrobenzo[e][1,4]diazepin-2-on trifluoroacetate [Compd. of Ex. 27]	4.8
		501 nM	> 100 µM	O=C(O)C(F)(F)F.O=C(c1ccc(Br)cc1)N1CC(=O)N(CC2CCN(c3ccncc3)CC2)c2ccccc2C1 [Compd. of Ex. 9, 4-(4-bromobenzoyl)-1-[1-(4-pyridyl)-4-piperidylmethyl]-1,3,4,5-tetrahydrobenzo[e][1,4]diazepin-2-on trifluoroacetate]	4.9
6.7	<4.0			CC(=N)N1CCC(Oc2ccc(CN3C(=O)CN(C(=O)c4ccc(Cl)cc4)Cc4c(Cl)cccc43)cc2)CC1.O=C(O)C(F)(F)F [Compd. of Ex. 39, 6-chloro-4-(4-chlorobenzoyl)-1-[4-(1-(1-acetimidoyl)-4-piperidyloxy)benzyl]-1,3,4,5-tetrahydrobenzo[e][1,4]diazepin-2-on trifluoroacetate]	4.8
		79.4 nM	63.1 µM	O=C(O)C(F)(F)F.O=C(c1ccc(CN2C(=O)CN(C(=O)c3ccc(Cl)cc3)Cc3ccc(CCCN4CCCCC4)cc32)cc1)N1CC=CC1 [Compd. of Ex. 93, 8-(3-piperidin-1-yl-propyl)-1-[4-(2,5-dihydro-1H-pyrrol-1-ylcarbonyl)benzyl]-4-(4-chlorobenzoyl)-1,3,4,5-tetrahydro-benzo[e][1,4]diazepin-2-on trifluoroacetate]	5.5
		7.94 nM	39.8 µM	O=C(c1ccc(CN2C(=O)CN(C(=O)c3ccc(Cl)cc3)Cc3ccc(CCP(=O)(O)O)cc32)cc1)N1CC=CC1 [Compd. of Ex. 73, [2-(4-(4-chlorobenzoyl)-2-oxo-1-[4-(2,5-dihydro-1H-pyrrol-1-ylcarbonyl)benzyl]-2,3,4,5-tetrahydro-1H-benzo[e][1,4]-diazepin-8-yl)ethyl]phosphonic acid]	4.9
		200 nM	79.4 µM	CN1CCN=C1c1ccc(CN2C(=O)CN(C(=O)c3ccc(Cl)cc3)Cc3ccc(CCC(=O)N4CCOCC4)cc32)cc1.O=C(O)C(F)(F)F [Compd. of Ex. 144, 4-(4-chlorobenzoyl)-1-[4-(1-methyl-4,5-dihydro-1H-imidazol-2-yl)benzyl]-8-[3-(4-morpholinyl)-3-oxopropyl]-1,3,4,5-tetrahydrobenzo[e][1,4]diazepin-2-on mono(trifluoroacetate)]	5.6
		200 nM	> 100 µM	CCOC(=O)c1ccc2c(c1)N(Cc1ccc(C3=[N+](C)CCN3C)cc1)C(=O)CN(C(=O)c1ccc(Cl)cc1)C2.O=C([O-])C(F)(F)F [Compd. of Ex. 206, 2-[4-((4-(4-chlorobenzoyl)-8-(ethoxycarbonyl)-2-oxo-2,3,4,5-tetrahydro-1H-1,4-benzodiazepin-1-yl)methyl)phenyl]-1,3-dimethyl-4,5-dihydro-1H-imidazol-3-ium trifluoroacetate]	5.5
		398 nM	> 100 µM	O=C(O)C(F)(F)F.O=C(c1ccc(Br)s1)N1CC(=O)N(CC2CCN(c3ccncc3)CC2)c2ccccc2C1 [Compd. of Ex. 25, 4-(5-bromothiophene-2-carbonyl)-1-[1-(4-pyridyl)-4-piperidylmethyl]-1,3,4,5-tetrahydrobenzo[e][1,4]diazepin-2-on trifluoroacetate]	4.9
7.1	<4.0			CN1CC[N+](C)=C1N1CCC(CCN2C(=O)CN(C(=O)c3ccc(Cl)cc3)Cc3ccccc32)CC1.O=C([O-])C(F)(F)F [Compd. of Ex. 178, 4-(4-chlorobenzoyl)-1-[2-(1-(1,3-dimethyl-4,5-dihydro-1H-imidazo-3-ium-2-yl)-4-piperidinyl)ethyl]-1,3,4,5-tetra-hydrobenzo[e][1,4]diazepin-2-on trifluoroacetate]	5.8
7.1	<4.0			CN1CCN=C1c1ccc(CN2C(=O)CN(C(=O)c3ccc(Cl)cc3)Cc3ccc(C(=O)O)cc32)cc1.O=C(O)C(F)(F)F [Compd. of Ex. 203, 4-(4-chlorobenzoyl)-2-oxo-1-[4-(1-methyl-4,5-dihydro-1H-imidazol-2-yl)benzyl]-2,3,4,5-tetrahydro-1H-benzoyl[e][1,4]-diazepine-8-carboxylic acid trifluoroacetate]	5.5
		251 nM	> 100 µM	CN1CCN=C1c1ccc(CN2C(=O)CN(C(=O)c3ccc(Cl)cc3)Cc3ccccc32)cc1.O=C(O)C(F)(F)F [Compd. of Ex. 125, 4-(4-chlorobenzoyl)-1-[4-(1-methyl-4,5-dihydro-1H-imidazol-2-yl)benzyl]-1,3,4,5-tetrahydrobenzo[e][1,4]-diazepin-2-on trifluoroacetate]	5.6
		50.1 nM	> 100 µM	N=C(c1ccc(CN2C(=O)CN(C(=O)c3ccc(Cl)cc3)Cc3ccccc32)cc1)N1CC=CC1.O=C(O)C(F)(F)F [Compd. of Ex. 107, 4-(4-chlorobenzoyl)-1-[4-(2,5-dihydro-1H-pyrrol-1-yl(imino)methyl)benzyl]-1,3,4,5-tetrahydrobenzo[e][1,4]-diazepin-2-on trifluoroacetate]	5.5
